From the supplement of paper PMC10307832

What was measured:
Test in all cases: relative viability (nuclei count vs DMSO), 5 days (fraction); higher = more cells survive
[1] = compound: CN(C)CC1=CC(=CC=C1)N=C(C2=CC=CC=C2)C3=C(NC4=C3C=CC(=C4)C(=O)N(C)C)O + CC(C)C[C@H](NC(=O)[C@H](Cc1ccccc1)NC(=O)c1cnccn1)B(O)O [Bortezomib] (partner 0.002 µM)
Outline: (§1)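 Relative viability was taken as the ratio of nuclei in treated wells to nuclei in vehicle wells. Lung cancer cell lines in 1536-well plates received compounds by pin tool one day after seeding, either one drug alone or a fixed anchor-drug dose plus five library-drug doses (not always all listed) in √10 steps. Nuclei were counted on 4× images after 5 days of treatment, and values are medians of duplicate plates.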

[2] = compound: CN(C)CC1=CC(=CC=C1)N=C(C2=CC=CC=C2)C3=C(NC4=C3C=CC(=C4)C(=O)N(C)C)O + CC1(C)CCC(c2ccc(Cl)cc2)=C(CN2CCN(c3ccc(C(=O)NS(=O)(=O)c4ccc(N[C@H](CCN5CCOCC5)CSc5ccccc5)c(S(=O)(=O)C(F)(F)F)c4)cc3)CC2)C1 [Navitoclax] (partner 0.5 µM)
Outline: as §1

[3] = compound: CN(C)CC1=CC(=CC=C1)N=C(C2=CC=CC=C2)C3=C(NC4=C3C=CC(=C4)C(=O)N(C)C)O + CCNC(=O)c1noc(-c2cc(C(C)C)c(O)cc2O)c1-c1ccc(CN2CCOCC2)cc1 [Luminespib] (partner 0.01 µM)
Outline: as §1

[4] = compound: CN(C)CC1=CC(=CC=C1)N=C(C2=CC=CC=C2)C3=C(NC4=C3C=CC(=C4)C(=O)N(C)C)O + Cc1nc(Nc2ncc(C(=O)Nc3c(C)cccc3Cl)s2)cc(N2CCN(CCO)CC2)n1 [Dasatinib] (partner 0.075 µM)
Outline: as §1

Cell Line	relative viability ([1]; first compound 0.08 µM)	relative viability ([1]; first compound 0.253 µM)	relative viability ([1]; first compound 0.8 µM)	relative viability ([1]; first compound 2.53 µM)	relative viability ([1]; first compound 8 µM)	relative viability ([2]; first compound 0.08 µM)	relative viability ([2]; first compound 0.253 µM)	relative viability ([2]; first compound 0.8 µM)	relative viability ([2]; first compound 2.53 µM)	relative viability ([2]; first compound 8 µM)	relative viability ([3]; first compound 0.08 µM)	relative viability ([3]; first compound 0.253 µM)	relative viability ([3]; first compound 0.8 µM)	relative viability ([3]; first compound 2.53 µM)	relative viability ([3]; first compound 8 µM)	relative viability ([4]; first compound 0.08 µM)	relative viability ([4]; first compound 0.253 µM)	relative viability ([4]; first compound 0.8 µM)	relative viability ([4]; first compound 2.53 µM)	relative viability ([4]; first compound 8 µM)
201T	1.13	1.15	1.08	1.06	0.994	1.2	1.23	1.14	1.17	1.18	1.06	0.993	1.01	1.05	0.802	0.544	0.603	0.575	0.54	0.493
A-427	0.986	0.941	1.02	0.935	0.98	0.96	0.961	1.01	0.92	0.964	0.995	0.929	1	0.667	0.756	0.741	0.698	0.653	0.791	0.679
ABC-1	0.324	0.312	0.264	0.274	0.316	–	–	–	–	–	0.609	0.618	0.422	0.445	0.552	0.619	0.617	0.557	0.605	0.577
BEN	0.951	0.679	0.794	0.876	0.717	0.0778	0.06	0.0663	0.0535	0.0691	0.338	0.269	0.312	0.212	0.437	0.307	0.284	0.396	0.487	0.336
